Results published in US7182943B2, “Method and system for modulation of microbial cell characteristics” (Université Laval, priority 2002, dated 2007).
Like-named read-outs stand apart in the source and are kept apart here. No end group written: not given here.

Tests used:
B. longum [1] = experiment: Antibiotic sensitivity by the disc assay method, B. longum cells; format: cell-based, Bifidobacterium longum ATCC 15707; conditions: after approximately 6 days of continuous culture, tolerance increased with time
Procedure: (§1) FIG. 1 : Tolerance to kanamycin of L. diacetylactis and B. longum cells produced during continuous immobilized cell fermentation in reactors R1 and R2 for different culture times. J and R indicate the culture day and reactor, respectively. The antibiotic sensitivity was tested by the disc assay method.
(§2) Bifidobacterium longum ATCC 15707 and Lactococcus lactis ssp lactis biovar diacetylactis were immobilized separately in κ-carrageenan/locust bean gum gel beads with a 2% (v/v) inoculum, as described previously (Lamboley et al. 1997). Beads with diameters in the range 1–2 mm were selected by wet sieving and used for fermentation experiments. This mixed gel is a good matrix entrapment for temperature-sensitive cells, with good mechanical properties for long-term stability during continuous culture with immobilized cells (Lamboley et al., 1997; 1999; 2001). The κ-carrageenan/locust bean gum gel is stabilized by potassium and other cations present in the culture broth. […] Other gel compositions can also be used for the immobilization matrix, such as polysaccharides and proteins, with other chemical products.
(§3) Reactor R1 was inoculated with 15% (v/v) of each of the two types of gel beads containing a pure culture of the two strains which have been pre-colonized during a 16 h pH-controlled batch culture. […] The reactors in series were continuously fed with MRS medium (de Man et al., 1960) supplemented with KCl 0.15 M to ensure bead mechanical stability. Medium feed flow rate was set at 240 ml/h during the 17-day culture and pH was controlled at 6.0 by addition of NH4OH 6N. The bioreactor was held at temperatures varying between 32–37° C. and purged with CO2 to maintain anaerobic conditions, with mixing set at 120 rpm.
(§4) FIG. 1 and Table 1 illustrate the effect of different antibiotics on the increase of L. diacetylactis and B. longum tolerance as a function of culture time.

L. diacetylactis = experiment: Antibiotic tolerance by the disc assay method, L. diacetylactis cells; format: cell-based, Lactococcus lactis ssp lactis biovar diacetylactis; conditions: after approximately 6 days of continuous culture, tolerance increased with time
Procedure: as §1, §2, §3, §4

B. longum [2] = conditions: 30000 ppm H2O2, 1 min at 37° C.
Procedure: FIG. 4: B. longum survival to hydrogen peroxyde (H2O2) of control (free-cell batch culture) and experimental (continuous two-stage immobilized cells fermentation) cultures. […] A bacterial sample (1 ml) was incubated with 9 ml H2O2 solution at final concentrations of 0, 2000, 10000, 20000, or 30000 ppm H2O2, for 1 min at 37° C. After incubation, 0.1 ml of test sample was added to 9.9 ml catalase 2% to stop the reaction, and cell survival was determined by the pour plate method.
The resistance of cells in the effluents from R1 and R2 to different stresses was tested as a function of fermentation time and compared to a control treatment. Control cells were produced during free-cell batch fermentation in MRS medium inoculated at 2% and incubated for 18 h at 37° C. with no pH control.

Molecule | Tolerance of cells produced with immobilized cell technology compared to the control (B. longum [1]) | Tolerance of cells produced with immobilized cell technology compared to the control (L. diacetylactis) | Cell survival (B. longum [2]; B. longum cells produced with ICT) [%] | Cell survival (B. longum [2]; B. longum control cells (free-cell batch culture)) [%]
CC[C@H]1OC(=O)[C@H](C)[C@@H](O[C@H]2C[C@@](C)(OC)[C@@H](O)[C@H](C)O2)[C@H](C)[C@@H](O[C@@H]2O[C@H](C)C[C@H](N(C)C)[C@H]2O)[C@](C)(O)C[C@@H](C)C(=O)[C@H](C)[C@@H](O)[C@]1(C)O [Erythromycin] | increased tolerance |  |  | 
O=C(N[C@H](CO)[C@H](O)c1ccc([N+](=O)[O-])cc1)C(Cl)Cl [Chloramphenicol] | increased tolerance | more tolerant |  | 
CN[C@H](CC(C)C)C(=O)N[C@H]1C(=O)N[C@@H](CC(N)=O)C(=O)N[C@H]2C(=O)N[C@H]3C(=O)N[C@H](C(=O)N[C@H](C(=O)O)c4cc(O)cc(O)c4-c4cc3ccc4O)[C@H](O)c3ccc(c(Cl)c3)Oc3cc2cc(c3O[C@@H]2O[C@H](CO)[C@@H](O)[C@H](O)[C@H]2O[C@H]2C[C@](C)(N)[C@H](O)[C@H](C)O2)Oc2ccc(cc2Cl)[C@H]1O [Vancomycin] | increased tolerance | more tolerant |  | 
OO [H2O2, hydrogen peroxide] |  |  | 0.1 | 0.003
Nisin Z (ITSISLCTPGCKTGALMGCNMKTATCNCSIHVSK; also: lantibiotic nisin-Z: thioether rings and dehydro residues not placed; UniProt P29559 24-57, looked up) [bacteriocin tested among the antibiotics in the disc assay] | increased tolerance | more tolerant |  | 
CN(C)[C@@H]1C(=O)C(C(N)=O)=C(O)[C@@]2(O)C(=O)C3=C(O)c4c(O)cccc4[C@@](C)(O)[C@H]3C[C@@H]12 [tetracyclin] | increased tolerance | more tolerant |  | 
